Data as given in ChEMBL document CHEMBL1156596, “Overcoming undesirable CYP1A2 inhibition of pyridylnaphthalene-type aldosterone synthase inhibitors: influence of heteroaryl derivatization on potency and selectivity” (J Med Chem, 2008).

Assays:
CYP1A2 = target: T1, CYP1A2 (Homo sapiens, UniProt P05177); assay: Inhibition of human recombinant CYP1A2 expressed in insect microsomes at 2 uM; type: ADME, Microsome
T1 sequence (P05177 whole entry): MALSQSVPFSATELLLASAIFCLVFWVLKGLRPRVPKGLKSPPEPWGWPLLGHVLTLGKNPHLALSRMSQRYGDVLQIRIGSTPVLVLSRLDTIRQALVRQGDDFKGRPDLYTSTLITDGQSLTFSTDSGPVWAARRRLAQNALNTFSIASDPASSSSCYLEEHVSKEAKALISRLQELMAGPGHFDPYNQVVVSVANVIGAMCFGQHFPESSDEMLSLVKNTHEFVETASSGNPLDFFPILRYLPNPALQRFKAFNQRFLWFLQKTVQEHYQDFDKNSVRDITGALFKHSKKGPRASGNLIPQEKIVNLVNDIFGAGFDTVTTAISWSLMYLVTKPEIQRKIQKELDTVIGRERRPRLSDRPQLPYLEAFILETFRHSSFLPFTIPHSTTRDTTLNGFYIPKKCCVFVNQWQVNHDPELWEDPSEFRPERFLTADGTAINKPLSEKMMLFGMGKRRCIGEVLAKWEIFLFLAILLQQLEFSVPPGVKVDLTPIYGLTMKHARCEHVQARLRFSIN

[1] = Terminal half life in Wistar rat at 5 mg/kg, po; type: ADME, organism-based; parameters: dose 5 mg/kg, route oral; settings: in vivo
[2] = Cmax in Wistar rat at 5 mg/kg, po; type: ADME, organism-based; parameters: dose 5 mg/kg, route oral; settings: in vivo
[3] = Plasma concentration in Wistar rat plasma at 5 mg/kg, po after 1 hr; type: ADME, organism-based; parameters: dose 5 mg/kg, route oral
[4] = Plasma concentration in Wistar rat plasma at 5 mg/kg, po after 2 hrs; type: ADME, organism-based; parameters: dose 5 mg/kg, route oral
[5] = Plasma concentration in Wistar rat plasma at 5 mg/kg, po after 4 hrs; type: ADME, organism-based; parameters: dose 5 mg/kg, route oral
[6] = Plasma concentration in Wistar rat plasma at 5 mg/kg, po after 6 hrs; type: ADME, organism-based; parameters: dose 5 mg/kg, route oral
[7] = Plasma concentration in Wistar rat plasma at 5 mg/kg, po after 8 hrs; type: ADME, organism-based; parameters: dose 5 mg/kg, route oral
[8] = Tmax in Wistar rat at 5 mg/kg, po; type: ADME, organism-based; parameters: dose 5 mg/kg, route oral; settings: in vivo
in vivo = settings: Wistar, rat, po, 5 mg/kg
Homo sapiens = species on record: Homo sapiens; assay: Selectivity ratio of IC50 for human CYP11B1 to IC50 for human CYP11B2
[9] = target: T2, Cytochrome P450 11B2, mitochondrial (Homo sapiens, UniProt P19099)
T2 sequence (P19099 whole entry): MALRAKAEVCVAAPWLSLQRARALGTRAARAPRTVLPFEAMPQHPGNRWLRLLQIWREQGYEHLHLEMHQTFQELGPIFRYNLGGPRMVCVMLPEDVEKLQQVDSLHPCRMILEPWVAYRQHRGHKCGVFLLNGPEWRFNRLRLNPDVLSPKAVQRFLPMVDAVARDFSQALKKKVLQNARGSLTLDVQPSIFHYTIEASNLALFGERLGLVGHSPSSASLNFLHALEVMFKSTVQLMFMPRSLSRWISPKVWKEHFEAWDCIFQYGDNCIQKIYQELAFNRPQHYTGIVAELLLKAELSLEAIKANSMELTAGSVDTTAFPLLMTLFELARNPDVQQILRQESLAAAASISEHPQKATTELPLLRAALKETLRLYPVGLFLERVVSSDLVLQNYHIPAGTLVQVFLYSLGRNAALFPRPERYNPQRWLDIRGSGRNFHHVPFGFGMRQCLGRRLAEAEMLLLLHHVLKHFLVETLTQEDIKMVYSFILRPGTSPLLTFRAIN

CYP11B1 = target: T3, CYP11B1 (Homo sapiens, UniProt P15538); assay: in vitro; settings: hamster V79 MZh cells expressing human CYP11B1
T3 sequence (P15538 whole entry): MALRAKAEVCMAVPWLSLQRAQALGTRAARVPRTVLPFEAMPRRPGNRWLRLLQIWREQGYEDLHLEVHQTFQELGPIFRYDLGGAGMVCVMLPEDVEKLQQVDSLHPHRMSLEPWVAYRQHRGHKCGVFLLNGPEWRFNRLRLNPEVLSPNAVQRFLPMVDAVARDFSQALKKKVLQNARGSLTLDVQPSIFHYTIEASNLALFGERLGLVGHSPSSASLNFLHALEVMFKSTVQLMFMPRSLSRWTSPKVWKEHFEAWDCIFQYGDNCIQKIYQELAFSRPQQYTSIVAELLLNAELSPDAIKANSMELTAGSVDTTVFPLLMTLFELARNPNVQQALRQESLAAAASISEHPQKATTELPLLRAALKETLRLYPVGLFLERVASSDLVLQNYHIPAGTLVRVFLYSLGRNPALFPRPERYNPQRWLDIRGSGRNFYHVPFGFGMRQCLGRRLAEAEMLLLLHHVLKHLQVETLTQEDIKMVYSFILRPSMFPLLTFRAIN

[10] = target: T2, Cytochrome P450 11B2, mitochondrial; assay: Inhibition of human CYP11B2 expressed in hamster V79 MZh cells at 500 nM; type: cell-based; settings: V79MZh
CYP17 = target: T4, CYP17 (Homo sapiens, UniProt P05093); assay: Inhibition of human recombinant CYP17 expressed in Escherichia coli at 2 uM
T4 sequence (P05093 whole entry): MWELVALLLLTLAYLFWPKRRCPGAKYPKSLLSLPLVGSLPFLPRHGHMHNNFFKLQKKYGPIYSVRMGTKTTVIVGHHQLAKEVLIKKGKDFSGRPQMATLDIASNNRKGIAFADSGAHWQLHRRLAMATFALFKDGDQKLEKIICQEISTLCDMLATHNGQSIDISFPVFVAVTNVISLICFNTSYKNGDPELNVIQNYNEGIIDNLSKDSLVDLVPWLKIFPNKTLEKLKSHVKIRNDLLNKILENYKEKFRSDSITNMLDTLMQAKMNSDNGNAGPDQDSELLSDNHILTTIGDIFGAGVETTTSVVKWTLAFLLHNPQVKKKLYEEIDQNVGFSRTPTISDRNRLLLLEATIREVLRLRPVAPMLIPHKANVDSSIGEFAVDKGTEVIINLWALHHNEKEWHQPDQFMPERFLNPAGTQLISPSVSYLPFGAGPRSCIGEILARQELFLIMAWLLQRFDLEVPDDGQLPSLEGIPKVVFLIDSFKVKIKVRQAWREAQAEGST

CYP19 (aromatase) = target: T5, CYP19 (aromatase) (Homo sapiens, UniProt P11511); assay: Inhibition of human placental CYP19 at 500 nM
T5 sequence (P11511 whole entry): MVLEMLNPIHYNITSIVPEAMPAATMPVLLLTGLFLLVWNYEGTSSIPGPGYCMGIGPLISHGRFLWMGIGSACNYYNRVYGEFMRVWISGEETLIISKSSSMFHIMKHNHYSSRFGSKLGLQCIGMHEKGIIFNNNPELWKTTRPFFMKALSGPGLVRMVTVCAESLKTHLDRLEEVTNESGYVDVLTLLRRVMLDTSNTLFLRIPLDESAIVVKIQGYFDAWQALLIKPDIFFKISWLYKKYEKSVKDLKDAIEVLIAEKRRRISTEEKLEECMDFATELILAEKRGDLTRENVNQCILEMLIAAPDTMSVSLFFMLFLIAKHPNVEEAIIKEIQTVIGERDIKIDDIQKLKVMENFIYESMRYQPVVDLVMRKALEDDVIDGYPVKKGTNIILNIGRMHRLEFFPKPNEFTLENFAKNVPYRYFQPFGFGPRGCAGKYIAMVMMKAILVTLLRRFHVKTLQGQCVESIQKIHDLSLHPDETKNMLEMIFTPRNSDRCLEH

Cytochrome P450 2B6 = target: T6, Cytochrome P450 2B6 (Homo sapiens, UniProt P20813); assay: Inhibition of human recombinant CYP2B6 expressed in insect microsomes; type: ADME, Microsome
T6 sequence (P20813 whole entry): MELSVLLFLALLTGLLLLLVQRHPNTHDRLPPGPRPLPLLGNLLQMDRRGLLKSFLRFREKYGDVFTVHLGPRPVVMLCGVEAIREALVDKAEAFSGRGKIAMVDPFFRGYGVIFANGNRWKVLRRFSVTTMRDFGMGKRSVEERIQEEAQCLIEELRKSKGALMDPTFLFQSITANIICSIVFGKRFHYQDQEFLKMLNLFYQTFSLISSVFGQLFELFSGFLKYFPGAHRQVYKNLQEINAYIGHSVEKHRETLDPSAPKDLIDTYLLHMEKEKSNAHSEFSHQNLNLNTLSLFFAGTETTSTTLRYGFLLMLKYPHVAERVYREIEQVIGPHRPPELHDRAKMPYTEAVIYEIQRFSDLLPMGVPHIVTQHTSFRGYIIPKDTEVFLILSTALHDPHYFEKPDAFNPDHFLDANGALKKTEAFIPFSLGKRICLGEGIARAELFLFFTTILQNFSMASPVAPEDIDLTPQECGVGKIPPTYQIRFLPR

Cytochrome P450 2C9 = Cytochrome P450 2C9 (Homo sapiens, UniProt P11712); assay: Inhibition of human recombinant CYP2C9 expressed in insect microsomes; type: ADME, Microsome
Chain of Cytochrome P450 2C9 (P11712 whole entry): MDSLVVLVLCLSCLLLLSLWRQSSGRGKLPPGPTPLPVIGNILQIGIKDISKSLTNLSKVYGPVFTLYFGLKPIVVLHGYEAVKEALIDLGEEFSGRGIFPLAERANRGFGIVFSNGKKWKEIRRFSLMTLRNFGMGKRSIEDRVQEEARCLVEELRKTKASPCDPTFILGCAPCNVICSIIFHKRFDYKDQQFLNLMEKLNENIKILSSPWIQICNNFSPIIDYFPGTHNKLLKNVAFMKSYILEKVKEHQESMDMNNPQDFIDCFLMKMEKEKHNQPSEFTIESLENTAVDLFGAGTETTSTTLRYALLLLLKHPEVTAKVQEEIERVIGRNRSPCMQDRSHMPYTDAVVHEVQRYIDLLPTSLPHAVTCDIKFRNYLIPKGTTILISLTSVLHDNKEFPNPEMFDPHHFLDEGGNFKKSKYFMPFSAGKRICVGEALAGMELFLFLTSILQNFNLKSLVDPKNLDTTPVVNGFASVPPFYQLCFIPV

Cytochrome P450 2C19 = Cytochrome P450 2C19 (Homo sapiens, UniProt P33261); assay: Inhibition of human recombinant CYP2C19 expressed in insect microsomes; type: ADME, Microsome
Chain of Cytochrome P450 2C19 (P33261 whole entry): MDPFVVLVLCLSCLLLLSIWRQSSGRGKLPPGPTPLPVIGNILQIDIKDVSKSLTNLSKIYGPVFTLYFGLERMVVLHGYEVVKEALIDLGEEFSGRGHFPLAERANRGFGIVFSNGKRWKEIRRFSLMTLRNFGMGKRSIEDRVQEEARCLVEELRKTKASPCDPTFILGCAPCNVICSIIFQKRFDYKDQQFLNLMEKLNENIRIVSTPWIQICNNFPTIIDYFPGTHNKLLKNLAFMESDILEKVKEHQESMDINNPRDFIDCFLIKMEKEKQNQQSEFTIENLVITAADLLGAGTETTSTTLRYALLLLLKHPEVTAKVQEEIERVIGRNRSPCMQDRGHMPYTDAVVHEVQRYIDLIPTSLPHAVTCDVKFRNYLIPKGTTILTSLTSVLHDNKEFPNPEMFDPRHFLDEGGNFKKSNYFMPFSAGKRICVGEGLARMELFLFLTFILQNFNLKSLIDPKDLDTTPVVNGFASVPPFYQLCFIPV

Cytochrome P450 2D6 = Cytochrome P450 2D6 (Homo sapiens, UniProt P10635); assay: Inhibition of human recombinant CYP2D6 expressed in insect microsomes; type: ADME, Microsome
Chain of Cytochrome P450 2D6 (P10635 whole entry): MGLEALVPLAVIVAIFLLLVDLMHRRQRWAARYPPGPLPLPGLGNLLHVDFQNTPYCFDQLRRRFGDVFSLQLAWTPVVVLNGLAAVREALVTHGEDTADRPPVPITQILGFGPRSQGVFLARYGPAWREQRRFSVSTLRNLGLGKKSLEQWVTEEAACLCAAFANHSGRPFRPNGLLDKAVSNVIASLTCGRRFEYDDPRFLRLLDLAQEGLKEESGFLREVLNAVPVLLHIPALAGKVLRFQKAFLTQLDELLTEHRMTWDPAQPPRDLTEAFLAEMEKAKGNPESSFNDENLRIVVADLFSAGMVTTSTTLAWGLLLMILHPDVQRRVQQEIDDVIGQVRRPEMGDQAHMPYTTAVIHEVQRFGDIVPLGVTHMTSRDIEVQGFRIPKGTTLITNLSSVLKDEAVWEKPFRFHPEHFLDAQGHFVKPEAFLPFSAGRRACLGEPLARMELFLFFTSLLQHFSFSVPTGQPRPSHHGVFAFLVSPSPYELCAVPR

Cytochrome P450 3A4 = Cytochrome P450 3A4 (Homo sapiens, UniProt P08684); assay: Inhibition of human recombinant CYP3A4 expressed in insect microsomes; type: ADME, Microsome
Chain of Cytochrome P450 3A4 (P08684 whole entry): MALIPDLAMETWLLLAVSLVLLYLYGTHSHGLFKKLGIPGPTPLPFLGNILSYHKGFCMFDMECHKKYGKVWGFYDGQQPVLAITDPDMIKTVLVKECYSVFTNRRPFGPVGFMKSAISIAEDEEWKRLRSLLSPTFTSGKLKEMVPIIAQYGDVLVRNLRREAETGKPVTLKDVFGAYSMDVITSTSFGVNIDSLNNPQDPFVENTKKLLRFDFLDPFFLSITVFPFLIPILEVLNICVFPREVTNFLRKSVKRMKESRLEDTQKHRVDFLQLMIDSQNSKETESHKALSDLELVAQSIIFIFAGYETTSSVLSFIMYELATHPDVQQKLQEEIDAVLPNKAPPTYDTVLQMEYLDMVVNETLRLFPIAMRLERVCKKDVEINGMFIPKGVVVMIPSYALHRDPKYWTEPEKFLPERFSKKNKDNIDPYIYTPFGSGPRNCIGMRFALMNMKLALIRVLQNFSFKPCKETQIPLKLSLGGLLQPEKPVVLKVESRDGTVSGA

[11] = target: T7, Cytochrome P450 11B1, mitochondrial (Homo sapiens, UniProt P15538)
T7 sequence (P15538 whole entry): T3 sequence (P15538 whole entry)

Cytochrome P450 1A2 = target: T8, Cytochrome P450 1A2 (Homo sapiens, UniProt P05177)
T8 sequence (P05177 whole entry): T1 sequence (P05177 whole entry)

COc1ccc2cc(-c3cccnc3)ccc2c1
inhibition at 2 µM (CYP1A2): 98%
half-life [1]: 5.4 h
Cmax [2]: 222 ng/mL
concentration at 1 h [3]: 84.5 ng/mL
concentration at 2 h [4]: 145 ng/mL
concentration at 4 h [5]: 124 ng/mL
concentration at 6 h [6]: 133 ng/mL
concentration at 8 h [7]: 59.2 ng/mL
Tmax [8]: 1 h
AUC(0-inf) (in vivo; plasma): 1540 ng·h/mL

N#Cc1ccc2cc(-c3cccnc3)ccc2c1
Ratio IC50 (Homo sapiens): 239
inhibition at 2 µM (CYP1A2): 97%
IC50 [9]: 2.9 nM
IC50 (CYP11B1): 691 nM

COc1ccc2cc(-c3cncc(C(=O)O)c3)ccc2c1
inhibition at 0.5 µM [10]: 7%

COc1cncc(-c2ccc3cc(OC)ccc3c2)c1
Ratio IC50 (Homo sapiens): 57
inhibition at 2 µM (CYP1A2): 91%
inhibition at 2 µM (CYP17): 41%
inhibition at 0.5 µM (CYP19 (aromatase)): 14%
IC50 (Cytochrome P450 2B6): > 25000 nM
IC50 (Cytochrome P450 2C9): 1890 nM
IC50 (Cytochrome P450 2C19): > 25000 nM
IC50 (Cytochrome P450 2D6): > 25000 nM
IC50 (Cytochrome P450 3A4): 1910 nM
IC50 [9]: 4.2 nM
IC50 [11]: 238 nM
IC50 (Cytochrome P450 1A2): 83 nM

N#Cc1ccc(C2CCCc3cncn32)cc1 (configuration not stated) [FADROZOLE]
inhibition at 2 µM (CYP1A2): 8%
half-life [1]: 2.2 h
Cmax [2]: 454 ng/mL
Tmax [8]: 1 h
AUC(0-inf) (in vivo; in vivo): 3580 ng·h/mL

COc1ccc2cc(-c3cncc(C(C)=O)c3)ccc2c1
Ratio IC50 (Homo sapiens): 121
inhibition at 2 µM (CYP1A2): 80%
inhibition at 2 µM (CYP17): 36%
inhibition at 0.5 µM (CYP19 (aromatase)): < 5%
IC50 (Cytochrome P450 2B6): > 50000 nM
IC50 (Cytochrome P450 2C9): > 200000 nM
IC50 (Cytochrome P450 2C19): > 200000 nM
IC50 (Cytochrome P450 2D6): > 200000 nM
IC50 (Cytochrome P450 3A4): 9070 nM
IC50 [9]: 2.1 nM
IC50 [11]: 255 nM
IC50 (Cytochrome P450 1A2): 488 nM

COc1ccc2cc(-c3cnccc3N)ccc2c1
Ratio IC50 (Homo sapiens): 117
inhibition at 2 µM (CYP1A2): 58%
inhibition at 2 µM (CYP17): 42%
inhibition at 0.5 µM (CYP19 (aromatase)): 47%
IC50 (Cytochrome P450 2B6): > 50000 nM
IC50 (Cytochrome P450 2C9): 49000 nM
IC50 (Cytochrome P450 2C19): 45800 nM
IC50 (Cytochrome P450 2D6): 11100 nM
IC50 (Cytochrome P450 3A4): 21100 nM
Cmax [2]: < 1.5 ng/mL
IC50 [9]: 13 nM
IC50 [11]: 1520 nM
IC50 (Cytochrome P450 1A2): 1420 nM
